Assay results reported in patent publication US20220040129A1, “TREATMENT OF HYPERAMMONEMIA IN PATIENTS WITH RENAL INSUFFICIENCY” (RECORDATI S.p.A., priority 2019, published 2022).

Columns and labels:
Experiment in all cases: In vitro transporter inhibition
Format in all cases: in vitro ADME
[1] = biological target: human MDR1 (Homo sapiens, UniProt P08183)
Method: (§1) In vitro drug interaction studies were performed with human transporters. […] Potential interactions with inhibitors of the OAT1 transporter were considered clinically irrelevant.

[2] = biological target: human BSEP (Homo sapiens, UniProt O95342)
Method: as §1

[3] = biological target: T1, human OATP1B3 (Homo sapiens, UniProt Q9NPD5)
T1 sequence (Q9NPD5 1-702): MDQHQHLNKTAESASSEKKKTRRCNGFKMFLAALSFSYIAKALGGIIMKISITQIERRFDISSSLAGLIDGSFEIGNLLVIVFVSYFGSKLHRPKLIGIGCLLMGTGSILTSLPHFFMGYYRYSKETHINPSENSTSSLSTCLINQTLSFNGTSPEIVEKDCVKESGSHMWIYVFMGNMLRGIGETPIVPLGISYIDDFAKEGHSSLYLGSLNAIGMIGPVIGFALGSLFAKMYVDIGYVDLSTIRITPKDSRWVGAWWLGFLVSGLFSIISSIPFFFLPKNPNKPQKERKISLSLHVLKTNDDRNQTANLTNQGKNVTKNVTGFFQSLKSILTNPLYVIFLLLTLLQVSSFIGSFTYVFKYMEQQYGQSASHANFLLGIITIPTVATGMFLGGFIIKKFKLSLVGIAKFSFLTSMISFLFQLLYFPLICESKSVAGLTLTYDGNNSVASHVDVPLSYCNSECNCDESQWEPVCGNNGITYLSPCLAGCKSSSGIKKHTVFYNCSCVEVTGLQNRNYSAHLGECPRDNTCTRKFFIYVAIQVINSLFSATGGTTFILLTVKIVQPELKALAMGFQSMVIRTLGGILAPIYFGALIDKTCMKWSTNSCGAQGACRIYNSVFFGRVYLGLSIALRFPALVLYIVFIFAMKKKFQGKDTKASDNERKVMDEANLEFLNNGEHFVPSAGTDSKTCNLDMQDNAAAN
Method: as §1

[4] = biological target: T2, human OCT1 (Homo sapiens, UniProt O15245)
T2 sequence (O15245 1-554): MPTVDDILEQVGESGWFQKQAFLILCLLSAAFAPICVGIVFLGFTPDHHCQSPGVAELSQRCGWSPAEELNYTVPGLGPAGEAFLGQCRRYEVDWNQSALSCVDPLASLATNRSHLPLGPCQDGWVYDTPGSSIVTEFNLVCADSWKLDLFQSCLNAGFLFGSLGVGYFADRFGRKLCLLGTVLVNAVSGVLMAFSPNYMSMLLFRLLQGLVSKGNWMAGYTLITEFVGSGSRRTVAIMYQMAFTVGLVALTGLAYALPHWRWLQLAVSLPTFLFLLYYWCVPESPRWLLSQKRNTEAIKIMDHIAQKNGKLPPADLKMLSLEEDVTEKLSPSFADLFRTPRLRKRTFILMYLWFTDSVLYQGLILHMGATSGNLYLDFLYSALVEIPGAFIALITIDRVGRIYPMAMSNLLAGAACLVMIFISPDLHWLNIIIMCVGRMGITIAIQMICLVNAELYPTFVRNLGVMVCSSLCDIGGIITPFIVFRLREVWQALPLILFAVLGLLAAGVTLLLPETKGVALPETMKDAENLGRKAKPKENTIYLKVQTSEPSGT
Method: as §1

[5] = biological target: T3, human OATP1B1 (Homo sapiens, UniProt Q9Y6L6)
T3 sequence (Q9Y6L6 1-691): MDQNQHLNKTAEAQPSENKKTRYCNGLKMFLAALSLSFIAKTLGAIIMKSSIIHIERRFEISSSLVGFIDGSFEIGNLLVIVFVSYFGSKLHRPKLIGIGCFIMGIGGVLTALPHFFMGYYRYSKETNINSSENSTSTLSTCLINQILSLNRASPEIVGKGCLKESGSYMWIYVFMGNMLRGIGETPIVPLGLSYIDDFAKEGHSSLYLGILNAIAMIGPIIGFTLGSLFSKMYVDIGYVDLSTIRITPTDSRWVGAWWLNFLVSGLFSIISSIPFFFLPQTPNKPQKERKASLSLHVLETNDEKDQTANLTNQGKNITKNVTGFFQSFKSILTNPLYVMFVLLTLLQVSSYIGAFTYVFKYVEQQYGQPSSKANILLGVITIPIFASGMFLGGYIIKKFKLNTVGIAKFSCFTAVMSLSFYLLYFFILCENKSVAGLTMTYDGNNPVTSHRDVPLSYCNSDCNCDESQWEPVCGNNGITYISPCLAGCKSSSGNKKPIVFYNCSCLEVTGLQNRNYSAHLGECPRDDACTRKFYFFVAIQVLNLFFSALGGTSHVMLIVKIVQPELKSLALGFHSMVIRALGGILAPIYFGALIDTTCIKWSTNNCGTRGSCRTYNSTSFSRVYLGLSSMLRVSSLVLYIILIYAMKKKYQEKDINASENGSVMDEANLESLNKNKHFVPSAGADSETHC
Method: as §1

[6] = biological target: T4, human OAT3 (Homo sapiens, UniProt Q8TCC7)
T4 sequence (Q8TCC7 1-542): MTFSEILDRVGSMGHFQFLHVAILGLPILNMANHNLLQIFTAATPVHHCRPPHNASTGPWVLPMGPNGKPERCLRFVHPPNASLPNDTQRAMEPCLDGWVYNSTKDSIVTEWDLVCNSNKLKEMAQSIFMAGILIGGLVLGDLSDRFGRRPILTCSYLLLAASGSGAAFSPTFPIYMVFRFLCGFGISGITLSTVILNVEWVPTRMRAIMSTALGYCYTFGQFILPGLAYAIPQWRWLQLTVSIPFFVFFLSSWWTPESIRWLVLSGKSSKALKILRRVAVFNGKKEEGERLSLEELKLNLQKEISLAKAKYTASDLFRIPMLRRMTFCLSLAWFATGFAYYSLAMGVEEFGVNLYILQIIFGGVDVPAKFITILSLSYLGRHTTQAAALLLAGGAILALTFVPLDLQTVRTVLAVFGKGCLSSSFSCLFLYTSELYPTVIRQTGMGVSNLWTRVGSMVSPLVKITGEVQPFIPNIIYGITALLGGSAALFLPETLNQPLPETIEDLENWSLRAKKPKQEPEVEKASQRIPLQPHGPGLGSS
Method: as §1

Sequence of human BSEP (O95342 whole entry): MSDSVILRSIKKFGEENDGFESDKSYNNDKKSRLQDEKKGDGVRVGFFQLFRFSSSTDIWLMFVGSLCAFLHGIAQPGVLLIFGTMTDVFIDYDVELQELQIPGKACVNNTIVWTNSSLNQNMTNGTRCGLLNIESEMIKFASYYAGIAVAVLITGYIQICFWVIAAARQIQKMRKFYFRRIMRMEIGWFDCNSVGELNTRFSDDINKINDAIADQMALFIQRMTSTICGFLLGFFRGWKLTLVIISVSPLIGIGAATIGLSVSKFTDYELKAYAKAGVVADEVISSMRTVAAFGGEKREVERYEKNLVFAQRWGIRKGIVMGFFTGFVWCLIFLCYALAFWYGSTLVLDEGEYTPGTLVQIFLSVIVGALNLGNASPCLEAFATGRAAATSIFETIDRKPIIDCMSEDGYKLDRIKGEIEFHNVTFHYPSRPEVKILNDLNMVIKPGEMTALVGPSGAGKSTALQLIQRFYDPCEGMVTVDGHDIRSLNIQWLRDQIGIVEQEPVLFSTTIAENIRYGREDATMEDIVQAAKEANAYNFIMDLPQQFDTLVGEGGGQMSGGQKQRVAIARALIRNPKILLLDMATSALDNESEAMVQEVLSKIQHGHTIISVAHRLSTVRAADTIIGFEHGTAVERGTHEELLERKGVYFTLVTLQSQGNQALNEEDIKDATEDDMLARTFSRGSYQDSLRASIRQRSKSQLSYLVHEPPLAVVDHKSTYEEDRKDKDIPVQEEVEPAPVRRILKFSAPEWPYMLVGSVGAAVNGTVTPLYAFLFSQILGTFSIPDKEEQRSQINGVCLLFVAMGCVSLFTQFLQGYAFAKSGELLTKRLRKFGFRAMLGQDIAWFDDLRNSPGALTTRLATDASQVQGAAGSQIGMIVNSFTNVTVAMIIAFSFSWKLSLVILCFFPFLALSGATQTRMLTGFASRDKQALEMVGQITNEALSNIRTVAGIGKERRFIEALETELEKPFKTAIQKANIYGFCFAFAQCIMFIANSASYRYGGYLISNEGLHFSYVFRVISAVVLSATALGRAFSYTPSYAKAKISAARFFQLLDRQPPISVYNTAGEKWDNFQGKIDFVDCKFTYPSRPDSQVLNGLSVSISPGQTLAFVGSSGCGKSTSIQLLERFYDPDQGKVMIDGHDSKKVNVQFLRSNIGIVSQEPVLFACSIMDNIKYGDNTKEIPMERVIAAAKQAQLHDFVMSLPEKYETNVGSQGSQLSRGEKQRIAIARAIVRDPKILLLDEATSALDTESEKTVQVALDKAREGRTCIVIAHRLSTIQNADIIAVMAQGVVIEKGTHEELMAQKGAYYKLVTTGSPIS
Sequence of human MDR1 (P08183 whole entry): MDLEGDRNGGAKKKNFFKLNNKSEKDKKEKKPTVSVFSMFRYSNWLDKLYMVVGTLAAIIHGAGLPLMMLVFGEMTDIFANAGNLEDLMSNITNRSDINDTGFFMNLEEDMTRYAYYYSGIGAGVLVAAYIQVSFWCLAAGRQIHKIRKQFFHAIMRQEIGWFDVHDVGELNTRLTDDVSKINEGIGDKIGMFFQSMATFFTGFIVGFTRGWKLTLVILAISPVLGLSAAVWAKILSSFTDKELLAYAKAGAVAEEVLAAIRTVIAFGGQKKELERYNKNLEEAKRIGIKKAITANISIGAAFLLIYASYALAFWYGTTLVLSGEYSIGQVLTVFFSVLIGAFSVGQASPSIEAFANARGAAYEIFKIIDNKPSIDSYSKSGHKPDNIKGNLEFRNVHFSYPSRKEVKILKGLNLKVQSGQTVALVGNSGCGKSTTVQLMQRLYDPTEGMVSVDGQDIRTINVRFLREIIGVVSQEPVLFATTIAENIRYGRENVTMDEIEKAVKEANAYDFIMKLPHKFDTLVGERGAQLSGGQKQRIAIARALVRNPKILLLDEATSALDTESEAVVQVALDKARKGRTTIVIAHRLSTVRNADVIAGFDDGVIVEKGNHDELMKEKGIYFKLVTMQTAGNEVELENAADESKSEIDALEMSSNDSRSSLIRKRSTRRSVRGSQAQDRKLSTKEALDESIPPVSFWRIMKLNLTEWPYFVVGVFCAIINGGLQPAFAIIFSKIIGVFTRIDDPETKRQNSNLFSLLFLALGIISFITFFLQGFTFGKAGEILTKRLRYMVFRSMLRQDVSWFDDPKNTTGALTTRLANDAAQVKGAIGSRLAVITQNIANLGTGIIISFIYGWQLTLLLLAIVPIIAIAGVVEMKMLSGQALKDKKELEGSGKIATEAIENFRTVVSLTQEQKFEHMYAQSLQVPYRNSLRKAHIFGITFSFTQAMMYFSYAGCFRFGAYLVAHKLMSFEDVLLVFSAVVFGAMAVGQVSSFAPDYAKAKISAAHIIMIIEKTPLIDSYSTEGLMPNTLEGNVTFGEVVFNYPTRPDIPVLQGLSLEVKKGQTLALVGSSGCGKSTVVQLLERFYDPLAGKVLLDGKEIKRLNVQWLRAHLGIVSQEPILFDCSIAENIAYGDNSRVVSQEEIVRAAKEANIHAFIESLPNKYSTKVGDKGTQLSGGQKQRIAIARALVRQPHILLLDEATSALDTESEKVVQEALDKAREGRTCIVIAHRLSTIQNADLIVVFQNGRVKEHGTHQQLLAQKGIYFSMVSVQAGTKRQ

NC(=O)N[C@@H](CCC(=O)O)C(=O)O [carglumic acid, N-carbamoyl-L-glutamic acid]
not an inhibitor: Inhibition of human MDR1 efflux transporter [1] | Inhibition of human BSEP efflux transporter [2] | Inhibition of human OATP1B3 uptake transporter [3] | Inhibition of human OCT1 uptake transporter [4] | Inhibition of human OATP1B1 uptake transporter [5] | Inhibition of human OAT3 uptake transporter [6]
